Like-named read-outs stand apart in the source and are kept apart here.
What was measured:
[1] = tested on: mice; assay: short term food intake after a single ingestion in mice (FIG. 5); type: in vivo; conditions: single dose vs sham gavage
[2] = biological target: T1, TRPA1 (Homo sapiens, UniProt O75762); conditions: known TRPA1 agonist; read-out: EC50 TRPA1 activation; cited from earlier work
[3] = tested on: mice; assay: gastric emptying after a single ingestion in mice (FIG. 6); type: in vivo; conditions: single dose vs sham gavage
[4] = tested on: mice; assay: insulin sensitivity in mice with chronic ingestion, high fat diet (FIG. 4); type: in vivo; conditions: mice chronically fed high fat diet containing 0.2 wt % compound vs same diet without
[5] = tested on: mice; assay: body weight gain in mice with chronic ingestion, high fat diet (FIG. 3); type: in vivo; conditions: mice chronically fed high fat diet containing 0.2 wt % compound vs same diet without
[6] = tested on: "empty" cells; assay: in vitro activation on "empty" cells, control (FIG. 7); type: cell-based; conditions: FIG. 7, downward pointing triangles
[7] = biological target: T2, TRPV1 (Homo sapiens, UniProt Q8NER1); assay: in vitro activation of TRPV1 in cells expressing TRP channels (FIG. 7); type: cell-based; conditions: FIG. 7, squares; read-out: EC 50 TRPV1 activation
T2 construct: expressed in transfected cells; an “empty” cell control implies recombinant expression

[8] = biological target: T1, TRPA1; assay: in vitro activation of TRPA1 in cells expressing TRP channels (FIG. 7); type: cell-based; conditions: FIG. 7, circles; read-out: EC-50 TRPA1 activation
[9] = biological target: TRPM8 (Homo sapiens, UniProt Q7Z2W7); assay: in vitro activation of hTRPM8 in cells expressing TRP channels (FIG. 7); type: cell-based; design: expressed in transfected cells; an “empty” cell control implies recombinant expression; conditions: FIG. 7, upward pointing triangles
Sequence of TRPM8 (Q7Z2W7 whole entry): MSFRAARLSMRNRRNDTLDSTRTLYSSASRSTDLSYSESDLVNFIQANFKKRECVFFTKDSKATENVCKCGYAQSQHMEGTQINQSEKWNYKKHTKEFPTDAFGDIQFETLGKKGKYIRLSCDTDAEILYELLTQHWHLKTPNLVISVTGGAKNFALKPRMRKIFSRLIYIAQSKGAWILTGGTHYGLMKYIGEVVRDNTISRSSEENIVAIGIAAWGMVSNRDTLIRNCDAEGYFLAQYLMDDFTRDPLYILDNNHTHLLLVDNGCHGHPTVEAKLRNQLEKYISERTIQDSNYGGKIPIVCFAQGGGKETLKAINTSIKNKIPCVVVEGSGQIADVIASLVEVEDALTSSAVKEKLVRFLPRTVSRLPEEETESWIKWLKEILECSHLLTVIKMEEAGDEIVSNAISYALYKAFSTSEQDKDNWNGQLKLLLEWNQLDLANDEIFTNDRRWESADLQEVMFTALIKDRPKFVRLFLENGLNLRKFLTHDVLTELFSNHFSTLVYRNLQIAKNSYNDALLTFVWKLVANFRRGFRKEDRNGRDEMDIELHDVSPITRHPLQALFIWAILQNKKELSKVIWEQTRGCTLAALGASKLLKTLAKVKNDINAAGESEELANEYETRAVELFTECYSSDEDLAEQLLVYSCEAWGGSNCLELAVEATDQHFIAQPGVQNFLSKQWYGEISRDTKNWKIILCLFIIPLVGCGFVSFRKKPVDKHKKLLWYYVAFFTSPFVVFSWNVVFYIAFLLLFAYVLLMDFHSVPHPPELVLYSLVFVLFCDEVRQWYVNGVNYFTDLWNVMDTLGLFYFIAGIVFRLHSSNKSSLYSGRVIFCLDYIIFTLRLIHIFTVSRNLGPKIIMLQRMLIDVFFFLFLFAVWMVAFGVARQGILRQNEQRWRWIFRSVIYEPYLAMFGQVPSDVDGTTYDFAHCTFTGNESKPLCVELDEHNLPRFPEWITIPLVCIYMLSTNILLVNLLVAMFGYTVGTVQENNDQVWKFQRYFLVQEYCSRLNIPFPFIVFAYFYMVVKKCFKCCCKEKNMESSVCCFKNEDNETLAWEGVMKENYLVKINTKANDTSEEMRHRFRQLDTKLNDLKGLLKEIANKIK

T1 sequence (O75762 whole entry, species assumed): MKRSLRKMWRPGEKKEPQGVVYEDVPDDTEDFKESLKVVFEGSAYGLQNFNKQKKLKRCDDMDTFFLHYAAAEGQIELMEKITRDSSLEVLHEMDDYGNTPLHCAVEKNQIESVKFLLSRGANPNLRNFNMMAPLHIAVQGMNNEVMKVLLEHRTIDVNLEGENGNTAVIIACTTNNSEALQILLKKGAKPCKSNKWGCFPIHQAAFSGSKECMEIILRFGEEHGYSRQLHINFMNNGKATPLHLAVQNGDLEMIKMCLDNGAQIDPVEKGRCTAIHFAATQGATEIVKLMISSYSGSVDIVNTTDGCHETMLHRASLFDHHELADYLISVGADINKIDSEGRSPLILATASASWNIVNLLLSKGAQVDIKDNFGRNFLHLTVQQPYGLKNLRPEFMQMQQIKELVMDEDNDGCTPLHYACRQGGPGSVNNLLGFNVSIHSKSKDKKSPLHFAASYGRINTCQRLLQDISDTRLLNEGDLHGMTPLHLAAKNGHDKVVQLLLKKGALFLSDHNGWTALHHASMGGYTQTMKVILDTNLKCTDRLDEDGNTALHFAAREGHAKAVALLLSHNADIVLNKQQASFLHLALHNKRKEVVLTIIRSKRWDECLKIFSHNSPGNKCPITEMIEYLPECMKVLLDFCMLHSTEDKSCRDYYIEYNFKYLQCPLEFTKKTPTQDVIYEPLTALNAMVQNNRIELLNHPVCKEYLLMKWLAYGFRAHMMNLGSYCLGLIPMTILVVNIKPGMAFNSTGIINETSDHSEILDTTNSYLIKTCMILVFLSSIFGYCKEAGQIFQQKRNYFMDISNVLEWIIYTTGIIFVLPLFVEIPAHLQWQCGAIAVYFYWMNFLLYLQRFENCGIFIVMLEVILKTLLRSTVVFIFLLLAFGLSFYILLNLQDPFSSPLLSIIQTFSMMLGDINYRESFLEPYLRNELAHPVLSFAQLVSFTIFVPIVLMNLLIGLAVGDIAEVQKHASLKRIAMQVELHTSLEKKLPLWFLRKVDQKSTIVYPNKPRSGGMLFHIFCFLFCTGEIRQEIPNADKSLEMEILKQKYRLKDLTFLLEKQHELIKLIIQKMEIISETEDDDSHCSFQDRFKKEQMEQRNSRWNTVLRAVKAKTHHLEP
T2 sequence (Q8NER1 whole entry, species assumed): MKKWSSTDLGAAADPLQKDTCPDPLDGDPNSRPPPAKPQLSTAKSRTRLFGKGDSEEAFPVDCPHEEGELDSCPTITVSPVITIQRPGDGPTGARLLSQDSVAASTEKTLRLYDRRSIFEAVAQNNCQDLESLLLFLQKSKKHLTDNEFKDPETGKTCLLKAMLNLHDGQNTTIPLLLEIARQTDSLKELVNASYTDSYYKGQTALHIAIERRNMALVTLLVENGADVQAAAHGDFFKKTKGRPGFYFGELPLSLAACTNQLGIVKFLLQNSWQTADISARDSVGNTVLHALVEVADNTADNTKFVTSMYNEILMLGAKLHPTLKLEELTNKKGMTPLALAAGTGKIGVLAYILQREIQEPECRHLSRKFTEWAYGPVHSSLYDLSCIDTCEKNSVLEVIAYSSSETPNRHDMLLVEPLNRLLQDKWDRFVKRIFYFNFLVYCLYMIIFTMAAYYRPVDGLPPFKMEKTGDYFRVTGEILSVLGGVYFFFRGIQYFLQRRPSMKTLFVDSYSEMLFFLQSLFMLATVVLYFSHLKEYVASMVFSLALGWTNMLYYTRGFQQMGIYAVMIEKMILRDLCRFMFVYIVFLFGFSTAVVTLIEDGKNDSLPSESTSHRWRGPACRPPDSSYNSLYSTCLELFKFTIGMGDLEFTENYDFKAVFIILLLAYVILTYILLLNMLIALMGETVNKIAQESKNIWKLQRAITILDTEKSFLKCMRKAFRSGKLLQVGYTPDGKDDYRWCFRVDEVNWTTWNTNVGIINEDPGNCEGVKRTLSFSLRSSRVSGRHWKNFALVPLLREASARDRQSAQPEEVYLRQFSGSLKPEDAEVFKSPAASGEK

## O=CC=Cc1ccccc1 [cinnamaldehyde]
[1]
  short term food intake: reduction in short term food intake
[2]
  EC50: ~60 µM
[3]
  gastric emptying: delayed gastric emptying
[4]
  insulin sensitivity: improved insulin sensitivity
[5]
  body weight gain: gained less weight

## COc1ccc(C=O)cc1 [p-anisaldehyde]
[6]
  activation of "empty" cells: no activation was observed
[7]
  EC50: ~500 µM
[8]
  EC50: ~100 µM
[9]
  activation of hTRPM8: no activation was observed
